Where a name gives a salt, the structure may show the parent alone.
target: T1, Calcium Sensing Receptor (CaSR) (Homo sapiens, UniProt P41180); experiment: In-vitro assay of calcimimetics through modulation of Calcium Sensing Receptor (intracellular calcium increase, FLIPR); format: cell-based; settings: stably transfected HEK293 cells expressing hCaSR; Fluo4NW dye; 0.3 mM CaCl2; 8-point assay; read-out: EC50 Range
T1 construct: expressed in transfected cells
T1 sequence (P41180 20-1078): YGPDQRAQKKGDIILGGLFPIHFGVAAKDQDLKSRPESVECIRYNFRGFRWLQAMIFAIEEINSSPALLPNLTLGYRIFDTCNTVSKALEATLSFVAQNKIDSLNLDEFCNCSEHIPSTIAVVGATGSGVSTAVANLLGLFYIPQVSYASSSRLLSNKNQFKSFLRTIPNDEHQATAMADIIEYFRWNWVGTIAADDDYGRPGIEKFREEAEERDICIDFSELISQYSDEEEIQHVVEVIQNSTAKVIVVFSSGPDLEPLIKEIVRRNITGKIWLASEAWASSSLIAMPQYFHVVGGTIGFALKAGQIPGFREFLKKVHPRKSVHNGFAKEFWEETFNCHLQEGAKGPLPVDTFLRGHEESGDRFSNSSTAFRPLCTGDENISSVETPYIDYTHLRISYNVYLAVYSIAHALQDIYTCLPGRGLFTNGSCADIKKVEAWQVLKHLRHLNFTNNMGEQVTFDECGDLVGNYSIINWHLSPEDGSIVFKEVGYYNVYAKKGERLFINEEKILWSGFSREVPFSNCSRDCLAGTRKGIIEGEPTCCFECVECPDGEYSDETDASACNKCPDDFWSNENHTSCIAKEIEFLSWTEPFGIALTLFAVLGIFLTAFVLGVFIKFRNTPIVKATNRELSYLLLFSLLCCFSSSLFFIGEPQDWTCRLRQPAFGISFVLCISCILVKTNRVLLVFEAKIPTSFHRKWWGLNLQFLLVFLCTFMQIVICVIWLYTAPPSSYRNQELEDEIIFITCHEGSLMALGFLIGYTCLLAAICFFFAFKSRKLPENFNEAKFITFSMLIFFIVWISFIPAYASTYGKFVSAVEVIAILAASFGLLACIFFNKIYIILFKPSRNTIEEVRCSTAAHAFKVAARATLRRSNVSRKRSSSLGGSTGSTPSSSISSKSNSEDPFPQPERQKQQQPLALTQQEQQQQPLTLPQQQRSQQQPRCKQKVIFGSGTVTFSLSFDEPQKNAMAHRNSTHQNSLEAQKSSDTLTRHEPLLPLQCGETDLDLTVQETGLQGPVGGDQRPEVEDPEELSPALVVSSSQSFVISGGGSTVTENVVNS
Protocol: Certain illustrative compounds within the scope of the invention are screened for CaSR activity according to the procedure given below. The screening of the compounds may also be carried by other methods and procedures known to skilled in the art.
In-vitro assay method of Calcimimetics through modulation of Calcium Sensing Receptor (CaSR):
The ability of the compounds to modulate Calcium sensing receptor is determined by measuring an increase in intracellular calcium [Ca^2+]i. Stably transfected HEK293 cells expressing hCaSR_pTriEx-3 hygro vector are developed. Cells are grown overnight on a 96-well plate to 80% confluency in Ham's F12 containing 20% FBS at 37° C., 5% CO2. Subsequently, cells are washed extensively with 20 mM HEPES buffer containing 126 mM […], 1 mM MgCl2 and 4 mM KCl to remove serum components that might interfere with the assay. Cells are loaded with calcium sensing Fluo4NW dye in HEPES base buffer containing 0.1% BSA and lmg/ml glucose for 30 minutes to measure changes in intracellular calcium. The activities of the compounds are measured in FLIPR using 0.3 mM CaCl2 in 20 mM HEPES base buffer. The effectiveness of the compound to modulate receptor activity is determined by calculating the EC50 responses for that compound in an 8-point assay and plotted using GraphPad Prism 5.
The compounds prepared were tested using the above assay procedure and the results obtained are given below.

| Compound | EC50 [nM] |
| --- | --- |
| COc1cc([C@@H](C)NCC2Cc3ccccc3N(c3ccc(C)c(C(=O)O)c3)C2)ccc1F (single isomer, unassigned) [Example 73b, hydrochloride] | 50 to 200 |
| Cc1ccc(C2CC(N[C@H](C)c3cccc4ccccc34)Cc3ccccc32)cc1C(=O)O (stereo partly drawn) [Example 22, 2-Methyl-5-(3-(((R)-1-(naphthalen-1-yl)ethyl)amino)-1,2,3,4-tetrahydronaphthalen-1-yl)benzoic acid hydrochloride] | 20 to 50 |
| Cc1ccc(C2CC(CN[C@H](C)c3cccc4ccccc34)Cc3ccccc32)cc1C(=O)O (single isomer, unassigned) [Example 8c, hydrochloride] | 50 to 200 |
| Cc1cc(C(=O)O)cc(C2CC(CN[C@H](C)c3cccc4ccccc34)Cc3ccccc32)c1 (single isomer, unassigned) [Example 9c, hydrochloride] | 50 to 200 |

Further lines, results first:

| EC50 [nM] | Compound |
| --- | --- |
| < 20 | Cc1ccc(C(=O)O)cc1C1C[C@H](CN[C@H](C)c2cccc3ccccc23)Cc2ccccc21 (single isomer, unassigned) [Example 14b, hydrochloride] |
| < 20 | Cc1ccc(N2CC(CN[C@H](C)c3cccc4ccccc34)Cc3ccccc32)c(C)c1C(=O)O (single isomer, unassigned) [Example 71a, hydrochloride] |
